This note sets out measurements from patent US8729096B2, “Imidazolidine-2,4-dione derivatives as N-formyl peptide receptor 2 modulators” (Allergan, Inc., priority 2012, dated 2014).

The target in the experiment is T1, FPR2 (Homo sapiens, UniProt P25090).
T1 construct: expressed in transfected cells
T1 sequence (P25090 1-351): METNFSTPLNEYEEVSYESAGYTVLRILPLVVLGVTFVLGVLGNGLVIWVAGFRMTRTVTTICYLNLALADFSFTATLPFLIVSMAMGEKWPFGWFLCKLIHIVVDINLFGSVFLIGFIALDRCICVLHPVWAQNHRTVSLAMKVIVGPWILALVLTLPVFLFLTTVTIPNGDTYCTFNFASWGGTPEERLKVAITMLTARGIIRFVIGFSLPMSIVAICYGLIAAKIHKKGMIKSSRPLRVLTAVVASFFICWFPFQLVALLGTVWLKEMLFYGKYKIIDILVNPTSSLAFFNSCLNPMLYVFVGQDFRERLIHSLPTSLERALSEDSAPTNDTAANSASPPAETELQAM
The experiment can be described thus: FLIPR Tetra compound-induced calcium activity in CHO-Ga16 cells stably expressing FPR2. The format is cell-based. Particulars: calcium activity on FLIPR Tetra; for Efficacy (fraction): efficacy given as a fraction; for EC50: tested at 0.61 to 10,000 nM. As to the method: CHO-Ga16 cells stably expressing FPR2 were cultured in (F12, 10% FBS, 1% PSA, 400 μg/ml geneticin and 50 μg/ml hygromycin) and HEK-Gqi5 cells stable expressing FPR2 were cultured in (DMEM high glucose, 10% FBS, 1% PSA, 400 μg/ml geneticin and 50 μg/ml hygromycin). In general, the day before the experiment, 18,000 cells/well were placed in a 384-well clear bottom poly-d-lysine coated plate. The following day the screening compound-induced calcium activity was assayed on the FLIPR^Tetra. The drug plates were prepared in 384-well microplates using the EP3 and the MultiPROBE robotic liquid handling systems. Compounds were tested at concentrations ranging from 0.61 to 10,000 nM. Results are expressed as EC50 (nM) and efficacy values.

For the compound `CCC1(C(C)C)NC(=O)N(CC(=O)Nc2ccc(Br)cc2)C1=O` (stereo not shown) [Compound 1, N-(4-bromophenyl)-2-(4-ethyl-4-isopropyl-2,5-dioxoimidazolidin-1-yl)acetamide], the “Efficacy (fraction)” value is listed as “(0.99)” and the concentration for a half-maximal effect (EC50) amounted to 56 nM.
On to `O=C(CN1C(=O)C2CCCN2C1=O)Nc1ccc(Br)cc1` (stereo not shown) [Compound 2, N-(4-bromophenyl)-2-(1,3-dioxotetrahydro-1H-pyrrolo[1,2-c]imidazol-2(3H)-yl)acetamide], for which the “Efficacy (fraction)” value was “(0.93)” and the EC50 turned out to be 343 nM.
Consider `O=C(CN1C(=O)C2CCCCN2C1=O)Nc1ccc(Br)cc1` (stereo not shown) [Compound 3, N-(4-bromophenyl)-2-(1,3-dioxohexahydroimidazo[1,5-a]pyridin-2(3H)-yl)acetamide], for which the “Efficacy (fraction)” value is reported as “(1.0)” and the EC50 stood at 243 nM.
Consider `COCC1(C)NC(=O)N(CC(=O)Nc2ccc(Br)cc2)C1=O` (stereo not shown) [Compound 5], for which the “Efficacy (fraction)” value was “(1.00)” and the EC50 amounted to 306 nM.
With `O=C(CN1C(=O)NC2(CCC2)C1=O)Nc1ccc(Br)cc1` [Compound 6, N-(4-Bromophenyl)-2-(6,8-dioxo-5,7-diazaspiro[3.4]octan-7-yl)acetamide], the “Efficacy (fraction)” value is given as “(1.00)” and the half-maximal effective concentration (EC50) came to 647 nM.
